Measured values from US12275737B2, “Polymorphs of a kinase inhibitor, pharmaceutical compositions containing such a compound, preparation methods, and applications” (Meryx, Inc., priority 2019, dated 2025).
Counter-ions that a name gives are not always drawn. Like-named read-outs stand apart in the source and are kept apart here.

What was measured:
[1] = Pharmacokinetics after oral capsule in male beagle dogs; type: in vivo; details: for absorption in the body compared with the free alkali of the compound of Formula I: conclusion from Table 6
Experimental: Nine male beagle dogs are divided into three groups, three in each group. They are each respectively administrated a 5 mg/kg oral capsule (PO) of Crystal Form 1, Crystal Form 2 and free base of the compound of Formula I (the dose is calculated according to the dose of the free base). Blood is collected from the jugular vein before administration and after administration for 15 minutes, 30 minutes, 1 hour, 2 hours, 4 hours, 6 hours, 8 hours, 10 hours, and 24 hours, and the plasma is separated and stored in a refrigerator at −80° C. LC-MS is subsequently used for analysis.

[2] = Determination of crystal form stability; type: physicochemical
[3] = Determination of saturated solubility; type: physicochemical; details: shaken 4 hours; for saturated solubility: 37° C.
Experimental: An appropriate amount of a sample of the compound is supersaturated in water at a pH of 1-8 and shaken at 37° C. for 4 hours with a shaker. The compound is sampled, centrifuged, then the supernatant is diluted and tested by HPLC. Calculations are compared to an external standard.
The saturated solubility of the compound of Crystal Form 1 and Crystal Form 2 of the compound of Formula I and MRX-2843 free base at 37° C. in different pH values are shown in Table 3.

[4] = 5 mg/kg (as free base), plasma, trihydrochloride
[5] = male, beagle, dog, plasma, po, 5 mg/kg, 5 mg/kg (as free base)
[6] = stored at 40° C./75% RH for 1, 3 and 6 months, trihydrochloride
[7] = pH 2.0, water, trihydrochloride
[8] = pH 3.0, water, trihydrochloride
[9] = pH 4.5, water, trihydrochloride
[10] = pH 6.0, water, trihydrochloride
[11] = pH 6.8, water, trihydrochloride
[12] = pH 7.4, water, trihydrochloride
[13] = pH 8.0, water, trihydrochloride
[14] = 5 mg/kg (as free base), plasma, listed as Free base of the compound of Formula I

With `CN1CCN(Cc2ccc(-c3cn([C@H]4CC[C@H](O)CC4)c4nc(NCCC5CC5)ncc34)cc2)CC1` [Crystal Form 1, trihydrochloride] the Cmax [1, 4] was 0.133 µg/mL, the “absorption in the body compared with the free alkali of the compound of Formula I” value ([1]; 5 mg/kg) was “better absorbed” and the AUC(0-inf) [1, 5] was 1.62 µg·h/mL. For the same molecule, the AUC(0-t) [1, 5] was 1.4 µg·h/mL, the Tmax ([1]; male, beagle, dog, plasma, po, 5 mg/kg, 5 mg/kg (as free base), plasma, read-out: Tmax) was 2.67 h and the “crystal form after storage” value ([2]; stored at 25° C./60% RH for 1, 3 and 6 months) was “remains unchanged”. The “crystal form after storage” value [2, 6] was “remains unchanged”, the saturated solubility [3, 7] was 489.60 mg/mL and the saturated solubility [3, 8] was 522.25 mg/mL. For the same molecule, the saturated solubility [3, 9] was 513.40 mg/mL, the saturated solubility [3, 10] was 460.64 mg/mL and the saturated solubility [3, 11] was 554.17 mg/mL. It also gave a saturated solubility [3, 12] of 494.83 mg/mL, a saturated solubility [3, 13] of 562.59 mg/mL and a solubility at 4 h ([3]; water, 37 °C, pH 1, simulated gastric fluid, thermodynamic from solid, pH 1.0, water) of 587 mg/mL.

In the case of `CN1CCN(Cc2ccc(-c3cn([C@H]4CC[C@H](O)CC4)c4nc(NCCC5CC5)ncc34)cc2)CC1` [Crystal Form 2, trihydrochloride], the AUCInf [1, 4] is reported as 1,530 h * ng/mL, the AUClast [1, 4] is reported as 1,323 h * ng/mL and the Cmax [1, 4] is reported as 0.125 µg/mL. For the same molecule, the Tmax [1, 4] was 2.00 h, the “absorption in the body compared with the free alkali of the compound of Formula I” value ([1]; 5 mg/kg) was “better absorbed” and the “crystal form after storage” value ([2]; stored at 5° C. for 18 and 24 months) was “remains unchanged”. For the same molecule, the “crystal form after storage” value ([2]; stored at 25° C./60% RH for 1, 3, 6, 9, 12, 18 and 24 months) was “remained unchanged”, the “crystal form after storage” value [2, 6] was “unchanged” and the saturated solubility ([3]; pH 1.0, water, trihydrochloride) was 535.05 mg/mL. The saturated solubility [3, 7] was 531.72 mg/mL, the saturated solubility [3, 8] was 512.80 mg/mL and the saturated solubility [3, 9] was 527.84 mg/mL. The saturated solubility [3, 10] was 546.95 mg/mL, the saturated solubility [3, 11] was 557.34 mg/mL and the saturated solubility [3, 12] was 516.01 mg/mL. For the same molecule, the saturated solubility [3, 13] was 479.26 mg/mL.

With `CN1CCN(Cc2ccc(-c3cn([C@H]4CC[C@H](O)CC4)c4nc(NCCC5CC5)ncc34)cc2)CC1` [MRX-2843 free base, reference compound] the AUCInf [1, 14] was 1,318 h * ng/mL, the AUClast [1, 14] was 1,169 h * ng/mL and the Cmax [1, 14] was 0.285 µg/mL. It also gave a Tmax [1, 14] of 3.33 h, a saturated solubility ([3]; pH 1.0, water) of 301.086 mg/mL and a saturated solubility ([3]; pH 2.0, water) of 3.110 mg/mL. For the same molecule, the saturated solubility ([3]; pH 3.0, water) was 1.516 mg/mL, the saturated solubility ([3]; pH 4.5, water) was 2.034 mg/mL and the saturated solubility ([3]; pH 6.0, water) was 0.018 mg/mL. For the same molecule, the saturated solubility ([3]; pH 6.8, water) was 0.008 mg/mL, the saturated solubility ([3]; pH 7.4, water) was 0.007 mg/mL and the saturated solubility ([3]; pH 8.0, water) was 0.008 mg/mL.
